Strand notation (5' to 3'): a small letter for the sugar, then the base; units joined by * are phosphorothioate-linked, units joined directly phosphodiester-linked; [ ] holds rarer units or linkages, { } end groups; capitals alone tell only the bases. e = 2'-O-(2-methoxyethyl) (MOE); k = constrained ethyl (cEt); [5mC] = 5-methylcytosine; d = 2'-deoxy (DNA)

The subject of this series is human PKK mRNA. The experiment in a line: Antisense inhibition of human PKK mRNA in HepaRG cells, 1,000 nM, MOE/deoxy/cEt oligonucleotides (Example 3). In kind it is cell-based. The following applies: HepaRG cells, electroporation with 1,000 nM antisense oligonucleotide, approx. 24 hours, PKK mRNA by RT-PCR (RTS3454), relative to untreated control cells; Table 25 experiment. The method in brief:
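HepaRG cells at 20,000 per well electroporated with 1,000 nM 16-mer MOE/cEt/deoxy gapmers (phosphorothioate, 5-methylcytosine). After about 24 h, PKK mRNA measured by qRT-PCR with primer probe set RTS3454, normalized to RIBOGREEN total RNA. Reported as percent inhibition versus untreated cells.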
Broadly, the % inhibition is the percentage by which the read-out fell short of the control. A high value points to a response far below the control. For the substance “548161 (e[5mC]*eT*k[5mC]*dG*d[5mC]*dA*dT*dT*dG*dT*d[5mC]*dA*dG*k[5mC]*k[5mC]*e[5mC]; antisense) [compound 548161]”, the “% inhibition” value is 59%.

As for “548162 (e[5mC]*e[5mC]*kT*d[5mC]*dG*d[5mC]*dA*dT*dT*dG*dT*d[5mC]*dA*kG*k[5mC]*e[5mC]; antisense) [compound 548162]”, the “% inhibition” value turned out to be 25%.

For “548163 (eA*e[5mC]*k[5mC]*dT*d[5mC]*dG*d[5mC]*dA*dT*dT*dG*dT*d[5mC]*kA*kG*e[5mC]; antisense) [compound 548163]”, the “% inhibition” value is recorded as 46%.

Turning to “548164 (eG*eA*k[5mC]*d[5mC]*dT*d[5mC]*dG*d[5mC]*dA*dT*dT*dG*dT*k[5mC]*kA*eG; antisense) [compound 548164]”, the “% inhibition” value turned out to be 40%.

On to “548165 (e[5mC]*eG*kA*d[5mC]*d[5mC]*dT*d[5mC]*dG*d[5mC]*dA*dT*dT*dG*kT*k[5mC]*eA; antisense) [compound 548165]”, for which the “% inhibition” value is listed as 53%.

Consider “548166 (eG*e[5mC]*kG*dA*d[5mC]*d[5mC]*dT*d[5mC]*dG*d[5mC]*dA*dT*dT*kG*kT*e[5mC]; antisense) [compound 548166]”, for which the “% inhibition” value was 0%.

For the substance “548167 (eT*eG*k[5mC]*dG*dA*d[5mC]*d[5mC]*dT*d[5mC]*dG*d[5mC]*dA*dT*kT*kG*eT; antisense) [compound 548167]”, the “% inhibition” value is 36%.

For the substance “548168 (eT*eT*kG*d[5mC]*dG*dA*d[5mC]*d[5mC]*dT*d[5mC]*dG*d[5mC]*dA*kT*kT*eG; antisense) [compound 548168]”, the “% inhibition” value came out at 61%.

Turning to “548169 (eG*eT*kT*dG*d[5mC]*dG*dA*d[5mC]*d[5mC]*dT*d[5mC]*dG*d[5mC]*kA*kT*eT; antisense) [compound 548169]”, the “% inhibition” value came out at 7%.

For “548171 (e[5mC]*eA*kG*dT*dT*dG*d[5mC]*dG*dA*d[5mC]*d[5mC]*dT*d[5mC]*kG*k[5mC]*eA; antisense) [compound 548171]”, the “% inhibition” value is 47%.

Take “548172 (eT*e[5mC]*kA*dG*dT*dT*dG*d[5mC]*dG*dA*d[5mC]*d[5mC]*dT*k[5mC]*kG*e[5mC]; antisense) [compound 548172]”: the “% inhibition” value turned out to be 0%.

As to “548173 (e[5mC]*eT*k[5mC]*dA*dG*dT*dT*dG*d[5mC]*dG*dA*d[5mC]*d[5mC]*kT*k[5mC]*eG; antisense) [compound 548173]”, the “% inhibition” value is recorded as 51%.

Turning to “548175 (eA*eT*k[5mC]*dT*d[5mC]*dA*dG*dT*dT*dG*d[5mC]*dG*dA*k[5mC]*k[5mC]*eT; antisense) [compound 548175]”, the “% inhibition” value was 0%.

Turning to “548176 (eG*eA*kT*d[5mC]*dT*d[5mC]*dA*dG*dT*dT*dG*d[5mC]*dG*kA*k[5mC]*e[5mC]; antisense) [compound 548176]”, the “% inhibition” value came out at 38%.

As for “548177 (eA*eG*kA*dT*d[5mC]*dT*d[5mC]*dA*dG*dT*dT*dG*d[5mC]*kG*kA*e[5mC]; antisense) [compound 548177]”, the “% inhibition” value was 45%.

As to “548178 (eG*eA*kG*dA*dT*d[5mC]*dT*d[5mC]*dA*dG*dT*dT*dG*k[5mC]*kG*eA; antisense) [compound 548178]”, the “% inhibition” value was determined as 54%.

Consider “548179 (eG*eG*kA*dG*dA*dT*d[5mC]*dT*d[5mC]*dA*dG*dT*dT*kG*k[5mC]*eG; antisense) [compound 548179]”, for which the “% inhibition” value stood at 52%.

As for “548181 (eG*eT*k[5mC]*dA*dT*dG*dG*dA*dG*dA*dT*d[5mC]*dT*k[5mC]*kA*eG; antisense) [compound 548181]”, the “% inhibition” value turned out to be 55%.

As for “548182 (eA*eG*kT*d[5mC]*dA*dT*dG*dG*dA*dG*dA*dT*d[5mC]*kT*k[5mC]*eA; antisense) [compound 548182]”, the “% inhibition” value came out at 55%.

Turning to “548183 (e[5mC]*eA*kG*dT*d[5mC]*dA*dT*dG*dG*dA*dG*dA*dT*k[5mC]*kT*e[5mC]; antisense) [compound 548183]”, the “% inhibition” value is 43%.

On to “548184 (eA*e[5mC]*kA*dG*dT*d[5mC]*dA*dT*dG*dG*dA*dG*dA*kT*k[5mC]*eT; antisense) [compound 548184]”, for which the “% inhibition” value is 73%.

“548185 (eA*eA*k[5mC]*dA*d[5mC]*dA*d[5mC]*dA*dG*dT*d[5mC]*dA*dT*kG*kG*eA; antisense) [compound 548185]”: the “% inhibition” value is given as 23%.

Take “548186 (e[5mC]*eA*kA*d[5mC]*dA*d[5mC]*dA*d[5mC]*dA*dG*dT*d[5mC]*dA*kT*kG*eG; antisense) [compound 548186]”: the “% inhibition” value amounted to 0%.

Consider “548187 (e[5mC]*eA*kT*d[5mC]*d[5mC]*dT*dA*dT*d[5mC]*d[5mC]*dG*dT*dG*kT*kT*e[5mC]; antisense) [compound 548187]”, for which the “% inhibition” value worked out at 33%.

As for “548189 (e[5mC]*eA*kT*dG*dA*dA*d[5mC]*dA*dT*d[5mC]*d[5mC]*dT*dA*kT*k[5mC]*e[5mC]; antisense) [compound 548189]”, the “% inhibition” value is listed as 24%.

With “548190 (eT*eA*kT*dT*d[5mC]*d[5mC]*dA*dT*dG*dA*dA*d[5mC]*dA*kT*k[5mC]*e[5mC]; antisense) [compound 548190]”, the “% inhibition” value turned out to be 43%.

“548191 (eG*eT*k[5mC]*dA*dA*d[5mC]*dA*dT*dA*dT*dT*d[5mC]*d[5mC]*kA*kT*eG; antisense) [compound 548191]”: the “% inhibition” value is on record as 0%.

On to “548192 (e[5mC]*e[5mC]*kT*dG*dT*d[5mC]*dA*dA*d[5mC]*dA*dT*dA*dT*kT*k[5mC]*e[5mC]; antisense) [compound 548192]”, for which the “% inhibition” value was 65%.

On to “548193 (eT*eG*kT*d[5mC]*d[5mC]*dT*dG*dT*d[5mC]*dA*dA*d[5mC]*dA*kT*kA*eT; antisense) [compound 548193]”, for which the “% inhibition” value came out at 58%.

“548194 (eG*e[5mC]*k[5mC]*dA*dA*d[5mC]*dA*dG*dT*dT*dT*d[5mC]*dA*kA*k[5mC]*eT; antisense) [compound 548194]”: the “% inhibition” value stood at 61%.

Consider “548196 (e[5mC]*eA*kA*dT*dA*dT*dT*dG*dA*d[5mC]*dT*dT*dT*kG*kG*eG; antisense) [compound 548196]”, for which the “% inhibition” value turned out to be 6%.

Take “548198 (eA*e[5mC]*kT*dG*d[5mC]*dA*dG*dG*d[5mC]*dA*dA*dT*dA*kT*kT*eT; antisense) [compound 548198]”: the “% inhibition” value is reported as 49%.

On to “548199 (eG*e[5mC]*kA*d[5mC]*dT*dG*d[5mC]*dA*dG*dG*d[5mC]*dA*dA*kT*kA*eT; antisense) [compound 548199]”, for which the “% inhibition” value is listed as 24%.

Turning to “548200 (e[5mC]*eT*kA*dA*dT*dG*dT*dG*dG*d[5mC]*dA*d[5mC]*dT*kG*k[5mC]*eA; antisense) [compound 548200]”, the “% inhibition” value was 19%.

For the substance “548202 (eG*e[5mC]*kT*dG*dT*dT*d[5mC]*dT*dA*dA*dT*dG*dT*kG*kG*e[5mC]; antisense) [compound 548202]”, the “% inhibition” value turned out to be 9%.

In the case of “548203 (eT*eG*kA*d[5mC]*dT*dA*dG*dT*dG*dA*dA*dT*dG*kG*k[5mC]*eT; antisense) [compound 548203]”, the “% inhibition” value came out at 73%.

“548204 (eT*e[5mC]*kT*dG*dA*d[5mC]*dT*dA*dG*dT*dG*dA*dA*kT*kG*eG; antisense) [compound 548204]”: the “% inhibition” value is recorded as 25%.

With “548205 (eT*e[5mC]*kA*dA*dT*d[5mC]*dT*dG*dA*d[5mC]*dT*dA*dG*kT*kG*eA; antisense) [compound 548205]”, the “% inhibition” value is recorded as 14%.

For “548206 (eG*eG*kT*d[5mC]*dA*dA*dT*d[5mC]*dT*dG*dA*d[5mC]*dT*kA*kG*eT; antisense) [compound 548206]”, the “% inhibition” value is given as 45%.

“548207 (e[5mC]*eT*kG*dG*dT*d[5mC]*dA*dA*dT*d[5mC]*dT*dG*dA*k[5mC]*kT*eA; antisense) [compound 548207]”: the “% inhibition” value is recorded as 60%.

As for “548208 (e[5mC]*eT*k[5mC]*dT*dG*dG*dT*d[5mC]*dA*dA*dT*d[5mC]*dT*kG*kA*e[5mC]; antisense) [compound 548208]”, the “% inhibition” value is 19%.

As for “548209 (e[5mC]*eA*kA*dT*d[5mC]*dT*d[5mC]*dT*dG*dG*dT*d[5mC]*dA*kA*kT*e[5mC]; antisense) [compound 548209]”, the “% inhibition” value is reported as 57%.

On to “548210 (e[5mC]*eA*kA*d[5mC]*dA*dA*dT*d[5mC]*dT*d[5mC]*dT*dG*dG*kT*k[5mC]*eA; antisense) [compound 548210]”, for which the “% inhibition” value was 55%.

With “548211 (eA*e[5mC]*k[5mC]*dA*dA*d[5mC]*dA*dA*dT*d[5mC]*dT*d[5mC]*dT*kG*kG*eT; antisense) [compound 548211]”, the “% inhibition” value is given as 51%.

As for “548212 (eA*eG*k[5mC]*d[5mC]*d[5mC]*dA*d[5mC]*d[5mC]*dA*dA*d[5mC]*dA*dA*kT*k[5mC]*eT; antisense) [compound 548212]”, the “% inhibition” value is 44%.

On to “548213 (eG*eA*k[5mC]*dA*dG*d[5mC]*d[5mC]*d[5mC]*dA*d[5mC]*d[5mC]*dA*dA*k[5mC]*kA*eA; antisense) [compound 548213]”, for which the “% inhibition” value was determined as 70%.

Turning to “548214 (e[5mC]*eA*kG*dA*d[5mC]*dA*dG*d[5mC]*d[5mC]*d[5mC]*dA*d[5mC]*d[5mC]*kA*kA*e[5mC]; antisense) [compound 548214]”, the “% inhibition” value was found to be 55%.

As to “548215 (eG*e[5mC]*kA*dT*dA*dG*dA*d[5mC]*d[5mC]*d[5mC]*d[5mC]*dA*dA*k[5mC]*kA*eG; antisense) [compound 548215]”, the “% inhibition” value was 61%.

“548216 (eG*eT*kG*d[5mC]*dA*dT*dA*dG*dA*d[5mC]*d[5mC]*d[5mC]*d[5mC]*kA*kA*e[5mC]; antisense) [compound 548216]”: the “% inhibition” value came out at 45%.

Source of the values: patent US11840686B2, “Modulation of prekallikrein (PKK) expression” (Ionis Pharmaceuticals, Inc., priority 2013, dated 2023).
